Laboratory results from ChEMBL document CHEMBL1158522, “Design, synthesis, and pharmacological evaluation of phenoxy pyridyl derivatives as dual norepinephrine reuptake inhibitors and 5-HT1A partial agonists” (Bioorg Med Chem Lett, 2010).

How the values were obtained:
[1] = molecular target: T1, Sodium-dependent serotonin transporter (Homo sapiens, UniProt P31645); assay: Displacement of [3H]citalopram from human SERT expressed in HEK293 cells by scintillation proximity assay; type: cell-based
[2] = molecular target: T2, Sodium-dependent dopamine transporter (Homo sapiens, UniProt Q01959); assay: Displacement of [3H]WIN-35428 from human DAT expressed in HEK293 cells by scintillation proximity assay; type: cell-based
T2 sequence (Q01959 whole entry): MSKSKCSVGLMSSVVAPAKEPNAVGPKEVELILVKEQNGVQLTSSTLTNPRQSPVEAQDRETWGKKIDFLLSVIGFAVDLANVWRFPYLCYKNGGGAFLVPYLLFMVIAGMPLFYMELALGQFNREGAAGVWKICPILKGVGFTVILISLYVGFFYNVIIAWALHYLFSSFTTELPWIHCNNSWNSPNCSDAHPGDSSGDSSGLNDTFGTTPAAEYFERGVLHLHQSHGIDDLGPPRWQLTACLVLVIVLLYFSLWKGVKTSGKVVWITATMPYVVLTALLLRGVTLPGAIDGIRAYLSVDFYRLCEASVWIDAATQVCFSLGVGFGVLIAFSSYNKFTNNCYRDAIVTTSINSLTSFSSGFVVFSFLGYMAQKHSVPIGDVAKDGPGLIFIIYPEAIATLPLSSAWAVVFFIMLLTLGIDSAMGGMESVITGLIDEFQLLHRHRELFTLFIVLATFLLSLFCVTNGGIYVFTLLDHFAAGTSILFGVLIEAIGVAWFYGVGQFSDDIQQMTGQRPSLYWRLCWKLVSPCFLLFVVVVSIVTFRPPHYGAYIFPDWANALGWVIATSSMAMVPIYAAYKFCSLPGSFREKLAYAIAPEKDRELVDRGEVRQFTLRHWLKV

[3] = molecular target: T3, 5-hydroxytryptamine receptor 1A (Homo sapiens, UniProt P08908); assay: Displacement of [3H]8-OH-DPAT from human cloned 5HT1A receptor by filtration techniques
T3 sequence (P08908 whole entry): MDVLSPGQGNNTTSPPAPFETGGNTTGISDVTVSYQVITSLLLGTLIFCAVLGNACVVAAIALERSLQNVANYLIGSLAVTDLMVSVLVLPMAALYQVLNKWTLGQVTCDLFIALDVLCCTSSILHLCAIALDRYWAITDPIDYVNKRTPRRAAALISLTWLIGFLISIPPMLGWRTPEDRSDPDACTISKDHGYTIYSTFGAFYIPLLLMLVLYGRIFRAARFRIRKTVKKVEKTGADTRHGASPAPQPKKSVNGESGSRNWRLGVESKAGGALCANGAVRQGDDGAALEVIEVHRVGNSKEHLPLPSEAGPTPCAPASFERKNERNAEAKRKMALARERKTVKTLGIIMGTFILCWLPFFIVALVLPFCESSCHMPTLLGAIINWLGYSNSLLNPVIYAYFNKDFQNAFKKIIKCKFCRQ

[4] = molecular target: T4, Sodium-dependent noradrenaline transporter (Homo sapiens, UniProt P23975); assay: Displacement of [3H]nisoxetine from human NET expressed in HEK293 cells by scintillation proximity assay; type: cell-based
T4 sequence (P23975 whole entry): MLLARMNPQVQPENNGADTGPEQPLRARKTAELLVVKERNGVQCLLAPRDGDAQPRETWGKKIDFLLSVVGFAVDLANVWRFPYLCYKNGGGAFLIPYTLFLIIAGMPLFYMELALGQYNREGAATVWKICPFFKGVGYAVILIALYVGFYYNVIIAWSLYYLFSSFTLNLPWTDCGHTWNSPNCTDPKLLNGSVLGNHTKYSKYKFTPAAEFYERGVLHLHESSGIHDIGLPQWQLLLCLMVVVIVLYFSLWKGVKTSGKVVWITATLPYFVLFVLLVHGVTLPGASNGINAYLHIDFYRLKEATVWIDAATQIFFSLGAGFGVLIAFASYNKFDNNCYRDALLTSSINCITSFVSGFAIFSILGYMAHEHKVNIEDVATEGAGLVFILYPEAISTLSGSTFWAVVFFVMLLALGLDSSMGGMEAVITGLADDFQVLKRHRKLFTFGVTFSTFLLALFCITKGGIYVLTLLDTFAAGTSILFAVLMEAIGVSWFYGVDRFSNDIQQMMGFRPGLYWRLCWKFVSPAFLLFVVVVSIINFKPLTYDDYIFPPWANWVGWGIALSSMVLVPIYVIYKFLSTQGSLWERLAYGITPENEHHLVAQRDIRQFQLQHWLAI

[5] = molecular target: T1, Sodium-dependent serotonin transporter; assay: Agonist activity at SERT; type: functional
[6] = molecular target: T3, 5-hydroxytryptamine receptor 1A; assay: Agonist activity at 5HT1A receptor by GTPgammaS assay; type: functional
[7] = molecular target: T2, Sodium-dependent dopamine transporter; assay: Agonist activity at DAT; type: functional
[8] = molecular target: T5, 5-hydroxytryptamine receptor 1A (Homo sapiens) (UniProt P08908); assay: Intrinsic activity at 5HT1A receptor by GTPgammaS assay; type: functional
T5 sequence (whole entry): T3 sequence (P08908 whole entry)

[9] = Ratio of EC50 for SERT to EC50 for NET
[10] = molecular target: T4, Sodium-dependent noradrenaline transporter; assay: Agonist activity at NET; type: functional
[11] = Plasma concentration rat at 10 mg/kg, sc after 1 hr; type: ADME, organism-based; design: dose 10 mg/kg, route subcutaneous
[12] = system: Rattus norvegicus; assay: Ex vivo NET occupancy in rat brain at 10 mg/kg, sc after 1 hr; type: functional; conditions: route subcutaneous
[13] = system: Rattus norvegicus; assay: Ex vivo 5HT1A receptor occupancy in rat brain at 10 mg/kg, sc after 1 hr; type: functional; conditions: route subcutaneous

T1 sequence (P31645 whole entry): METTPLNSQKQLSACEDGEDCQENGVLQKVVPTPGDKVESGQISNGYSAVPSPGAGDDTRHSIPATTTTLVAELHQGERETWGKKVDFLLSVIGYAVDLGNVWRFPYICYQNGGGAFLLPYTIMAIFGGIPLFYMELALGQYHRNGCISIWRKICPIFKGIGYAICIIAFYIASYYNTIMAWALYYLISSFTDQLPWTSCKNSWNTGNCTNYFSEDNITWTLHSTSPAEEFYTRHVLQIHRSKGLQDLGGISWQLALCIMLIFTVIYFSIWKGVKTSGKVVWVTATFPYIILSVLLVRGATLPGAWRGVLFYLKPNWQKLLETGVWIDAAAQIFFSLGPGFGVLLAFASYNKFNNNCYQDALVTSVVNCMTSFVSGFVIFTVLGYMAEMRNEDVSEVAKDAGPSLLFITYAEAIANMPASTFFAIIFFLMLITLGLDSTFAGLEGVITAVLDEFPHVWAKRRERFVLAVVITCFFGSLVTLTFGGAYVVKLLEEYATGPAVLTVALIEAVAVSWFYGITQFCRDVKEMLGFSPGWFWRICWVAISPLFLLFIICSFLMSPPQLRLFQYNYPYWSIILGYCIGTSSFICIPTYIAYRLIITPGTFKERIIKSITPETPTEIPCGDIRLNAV

Row | Compound | Ki [1] | Ki [2] | Ki [3] | Ki [4] | EC50 [5] | EC50 [6] | EC50 [7] | Intrinsic activity [8] | Ratio EC50 [9] | EC50 [10] | concentration at 1 h [11] | Activity [12] | Activity [13]
1 | Fc1ccc(Oc2ncccc2C2CCNCC2)c(F)c1 | 30 nM | 2590 nM | 29 nM | 143 nM | – | – | – | – | – | – | – | – | –
2 | Clc1ccc(Oc2ncccc2C2CCNCC2)c(Cl)c1 | 2.7 nM | > 5500 nM | 37 nM | 413 nM | – | – | – | – | – | – | – | – | –
3 | Cc1ccc(Oc2ncccc2C2CCNCC2)c(F)c1 | 36 nM | > 6140 nM | 5.5 nM | 921 nM | – | – | – | – | – | – | – | – | –
4 | Clc1ccccc1Oc1ncccc1N1CCNCC1 | > 4710 nM | > 6320 nM | 4.5 nM | 747 nM | – | – | – | – | – | – | – | – | –
5 | FC(F)(F)c1ccccc1Oc1ncccc1C1CCNCC1 | 203 nM | > 6650 nM | 71 nM | 140 nM | – | – | – | – | – | – | – | – | –
6 | Clc1cccc(Oc2ncccc2C2CCNCC2)c1Cl | 2 nM | 310 nM | 37 nM | 25 nM | – | – | – | – | – | – | – | – | –
7 | Fc1cccc(Cl)c1Oc1ncccc1N1CCNCC1 | > 4710 nM | > 6320 nM | 3.7 nM | 663 nM | – | – | – | – | – | – | – | – | –
8 | Fc1ccccc1Oc1cccc(F)c1C1CCNCC1 | 1260 nM | 278 nM | 4.6 nM | 32 nM | 915 nM | 341 nM | 498 nM | 84% | 33 | 28 nM | – | – | –
9 | Fc1ccc(Cl)c(Oc2ncccc2C2CCNCC2)c1 | 251 nM | > 6220 nM | 17 nM | 247 nM | – | – | – | – | – | – | – | – | –
10 | COc1cccc(F)c1Oc1ncccc1C1CCNCC1 | 887 nM | 6410 nM | 24 nM | 276 nM | – | – | – | – | – | – | – | – | –
11 | Fc1ccccc1Oc1ncccc1C1CCNCC1 | 728 nM | > 6180 nM | 13 nM | 536 nM | – | – | – | – | – | – | – | – | –
12 | Fc1cccc(F)c1Oc1ncccc1C1CCNCC1 | 1850 nM | > 6630 nM | 7.2 nM | – | – | – | – | – | – | – | – | – | –
13 | Cc1ccccc1Oc1ncccc1C1CCNCC1 | 292 nM | > 6170 nM | 60 nM | 330 nM | – | – | – | – | – | – | – | – | –
14 | c1ccc(Oc2ncccc2C2CCNCC2)cc1 | – | 4310 nM | 101 nM | 2440 nM | – | – | – | – | – | – | – | – | –
15 | Cc1cccc(F)c1Oc1ncccc1C1CCNCC1 | 102 nM | > 6370 nM | 10 nM | 27 nM | – | – | – | – | – | – | – | – | –
16 | COc1ccccc1Oc1ncccc1C1CCNCC1 | 610 nM | 6410 nM | 92 nM | 292 nM | – | – | – | – | – | – | – | – | –
17 | Clc1ccccc1Oc1ncccc1C1CCNCC1 | 57 nM | 5150 nM | 16 nM | 74 nM | – | – | – | – | – | – | – | – | –
18 | Fc1cccc(Cl)c1Oc1ncccc1C1CCNCC1 | 194 nM | > 6180 nM | 11 nM | 33 nM | 409 nM | 89 nM | 6880 nM | 37% | 45 | 9 nM | 777 ng/mL | 75.3% | 37.4%
19 | Fc1cccc(Oc2ncccc2C2CCNCC2)c1F | 109 nM | > 6650 nM | 173 nM | 1810 nM | – | – | – | – | – | – | – | – | –
